According to US20240199571A1, “THIOPHENE COMPOUND AND APPLICATION THEREOF” (MEDSHINE DISCOVERY INC., priority 2021, published 2024):
Where a name gives a salt, the structure may show the parent alone.

Tests used:
[1] = biological target: hERG potassium ion channels (Homo sapiens (Human), UniProt Q12809); test: Experiment 4: hERG potassium ion channel inhibition, automated patch clamp (Qpatch), CHO-hERG cells; type: cell-based; settings: highest test concentration 40 μM
Procedure: Experiment 4: hERG Potassium Ion Channel Inhibition Assay
Experimental purpose: To test the effects of the test examples on hERG potassium ion channels using an automated patch clamp method.
4.1.1 CHO-hERG cells were cultured in a 175 cm^2 culture flask. When the cell density grew from 60% to 80%, the culture medium was removed. The cells were washed once with 7 mL of PBS (Phosphate Buffered Saline), and then 3 mL of Detachin cell dissociation reagent was added thereto for digestion.
4.1.2 After the digestion was completed, 7 mL of culture medium was added thereto for neutralization, then the mixture was centrifuged, the supernatant was aspirated, and then 5 mL of culture medium was added thereto for resuspension to ensure a cell density of 2×10^6/mL to 5×10^6/ML.
The single-cell high-resistance sealing and whole-cell modeling formation processes were all automatically completed by the Qpatch instrument of the Shanghai Institute of Materia Medica, Chinese Academy of Sciences. After obtaining the whole-cell recording modeling, the cells were clamped at −80 mV, and before a 5-second +40 mV depolarizing stimulus was given, a 50-millisecond −50 mV prepulse was first given, then the voltage was repolarized to −50 mV and holden for 5 seconds, and finally returned to −80 mV. This voltage stimulus was applied every 15 seconds, recorded for 2 minutes, and then the extracellular fluid was recorded for 5 minutes, and then the administration process was initiated, with compound concentrations starting at the lowest test concentration. The voltage stimulus was given for 2.5 minutes for each test concentration, and after all concentrations had been continuously given, 3 μM the positive control compound, Cisapride, was given. At least 3 cells were tested per concentration (n≥3).
4.4.1 The compound stock solution was diluted with DMSO, and 20 μL of DMSO solution was added with 10 μL of the compound stock solution, and serially diluted 3-fold to 6 DMSO concentrations.
4.4.2 4 μL of 6 DMSO concentrations of compounds were taken respectively and added to 396 μL of extracellular fluid, and the mixture was diluted 100-fold to 6 intermediate concentrations, then 80 μL of 6 intermediate concentrations of compounds was taken and added to 320 μL of extracellular fluid, and the mixture was diluted 5-fold to the final test concentration.
4.4.3 The highest test concentration was 40 μM, and the concentrations were respectively 40, 13.3, 4.4, 1.48, 0.494, and 0.165 μM for a total of six concentrations.
4.4.5 The preparation of the compound was completed by the Bravo instrument throughout the dilution process.
Experimental data were analyzed by GraphPad Prism 5.0 software.

[2] = system: NCI-H1417 cells; test: Experiment 2: inhibition of NCI-H1417 cell proliferation (CellTiter-Glo, 10 days); type: cell-based; settings: Homo sapiens, 240 h, 10 days incubation
Procedure: Experiment 2: Evaluation of Inhibitory Activity on NCI-H1417 Cell Proliferation
Experimental purpose: To test the inhibitory activity of test compounds on NCI-H1417 cell proliferation.
Experimental materials: RPMI 1640 medium, fetal bovine serum, Promega CellTiter-Glo reagent. The NCI-H1417 cell line was purchased from ATCC. Envision multilabel plate reader (PerkinElmer).
Experimental method: The compounds were dissolved to 10 mM and 5-fold diluted with DMSO in the compound plates, starting with a concentration of 2 mM. 3-fold serial dilution was performed with Bravo to 10 concentrations. Then 250 nL of the compound solution was transferred to the upper and lower double duplicate wells of a blank 384 cell plate with Echo. To each well containing the transferred 250 nL of DMSO/compound was added a cell suspension of 1000 cells/50 μL per well, and the compound was diluted 200-fold, i.e., resulting in an initial working concentration of 10 μM. The cell plate was incubated in a carbon dioxide incubator for 10 days. To the cell plate was added 25 μL of Promega CellTiter-Glo reagent per well and the mixture was shaken for 10 minutes at room temperature to stabilize the luminescence signal. Readings were performed on a PerkinElmer Envision multilabel plate reader.
Data analysis: Raw data were converted into inhibition rate using the formula: (Max−Ratio)/(Max−Min)*100%. The IC50 values could then be derived from four-parameter curve fitting. (derived from 205 mode in XLFIT5, iDBS)
The compounds were tested for inhibitory activity of compounds on NCI-H1417 cell proliferation, and the results are shown in Table 3.

[3] = biological target: human LSD1 (Homo sapiens (Human), UniProt O60341); test: Experiment 1B: in vitro LSD1 enzyme activity, enzyme-coupled fluorescence (HRP/Amplex Red), H3(1-21)K4me2 peptide 10 μM (Reaction Biology); type: biochemical; settings: histone H3(1-21)K4me2 peptide 10 μM
Procedure: Experiment 1B: Evaluation of Enzyme Activity
Testing unit: Reaction Biology Corp., USA.
The purpose of the assay was to test the in vitro inhibitory activity of the compounds against LSD1. The enzyme used in the assay was human LSD1, and the standard substrate was histone H3(1-21)K4me2 peptide (10 μM). The activity of the compounds was determined by the enzyme-coupling fluorescent method by the combined detection of H2O2 generated after the reaction of LSD1 by horseradish peroxidase (HRP) and the fluorescent reagent Amplex Red. Starting from 10 μM, the compounds were 3-fold diluted to detect the IC50 values of the compounds at 10 concentrations. The enzyme and substrate were incubated for 30 minutes before the compound was added to the substrate to start the reaction. Fluorescence detector: EnVision, excitation wavelength: Ex/Em=535/590 nM.

[4] = Experiment 3: pharmacokinetic evaluation in CD-1 mice (IV and oral); type: in vivo; settings: mouse, plasma, male CD-1 mice
Procedure: Experiment 3: Pharmacokinetic Evaluation of Compounds
Experimental purpose: To test the pharmacokinetics of compounds in CD-1 mice in vivo
CD-1 mice (male/female, 7 to 9 weeks old, Shanghai SLAC)
The pharmacokinetic characteristics of the compounds in rodents after intravenous injection and oral administration were tested according to the standard protocol. In the experiment, the candidate compound was formulated into clear solutions, and a single intravenous injection and oral administration were given to mice. The vehicle for intravenous injection and oral administration was a mixed vehicle composed of 10% dimethyl sulfoxide and 90% hydroxypropyl β-cyclodextrin with a content of 10%. In this project, four male/female CD-1 mice were used. Two mice were injected intravenously at a dose of 1 mg/kg, and plasma samples were collected at 0.083, 0.25, 0.5, 1, 2, 4, 8, and 24 hours after administration; the other two were administered orally by gavage at a dose of 2 mg/kg, and plasma samples were collected at 0.25, 0.5, 1, 2, 4, 8, and 24 hours after administration. The samples were centrifuged at 3200 g for 10 minutes at 4° C., and plasma samples were obtained by separating the supernatant. A methanol solution containing internal standard with 20 times the volume of the sample was added thereto to precipitate the protein, and the mixture was centrifuged at 12000 g for 15 minutes at 4° C. 50 μL of the supernatant was taken and transferred to a 96-well plate and centrifuged again. The supernatant was taken for sampling. The plasma concentration was quantitatively analyzed using LC-MS/MS analysis method, and pharmacokinetic parameters, such as peak concentration (Cmax), clearance rate (CL), half-life (T1/2), volume of distribution at steady state (Vdss), area under drug-time curve (AUC0-last), bioavailability (F).

Sequence of hERG potassium ion channels (Q12809 whole entry): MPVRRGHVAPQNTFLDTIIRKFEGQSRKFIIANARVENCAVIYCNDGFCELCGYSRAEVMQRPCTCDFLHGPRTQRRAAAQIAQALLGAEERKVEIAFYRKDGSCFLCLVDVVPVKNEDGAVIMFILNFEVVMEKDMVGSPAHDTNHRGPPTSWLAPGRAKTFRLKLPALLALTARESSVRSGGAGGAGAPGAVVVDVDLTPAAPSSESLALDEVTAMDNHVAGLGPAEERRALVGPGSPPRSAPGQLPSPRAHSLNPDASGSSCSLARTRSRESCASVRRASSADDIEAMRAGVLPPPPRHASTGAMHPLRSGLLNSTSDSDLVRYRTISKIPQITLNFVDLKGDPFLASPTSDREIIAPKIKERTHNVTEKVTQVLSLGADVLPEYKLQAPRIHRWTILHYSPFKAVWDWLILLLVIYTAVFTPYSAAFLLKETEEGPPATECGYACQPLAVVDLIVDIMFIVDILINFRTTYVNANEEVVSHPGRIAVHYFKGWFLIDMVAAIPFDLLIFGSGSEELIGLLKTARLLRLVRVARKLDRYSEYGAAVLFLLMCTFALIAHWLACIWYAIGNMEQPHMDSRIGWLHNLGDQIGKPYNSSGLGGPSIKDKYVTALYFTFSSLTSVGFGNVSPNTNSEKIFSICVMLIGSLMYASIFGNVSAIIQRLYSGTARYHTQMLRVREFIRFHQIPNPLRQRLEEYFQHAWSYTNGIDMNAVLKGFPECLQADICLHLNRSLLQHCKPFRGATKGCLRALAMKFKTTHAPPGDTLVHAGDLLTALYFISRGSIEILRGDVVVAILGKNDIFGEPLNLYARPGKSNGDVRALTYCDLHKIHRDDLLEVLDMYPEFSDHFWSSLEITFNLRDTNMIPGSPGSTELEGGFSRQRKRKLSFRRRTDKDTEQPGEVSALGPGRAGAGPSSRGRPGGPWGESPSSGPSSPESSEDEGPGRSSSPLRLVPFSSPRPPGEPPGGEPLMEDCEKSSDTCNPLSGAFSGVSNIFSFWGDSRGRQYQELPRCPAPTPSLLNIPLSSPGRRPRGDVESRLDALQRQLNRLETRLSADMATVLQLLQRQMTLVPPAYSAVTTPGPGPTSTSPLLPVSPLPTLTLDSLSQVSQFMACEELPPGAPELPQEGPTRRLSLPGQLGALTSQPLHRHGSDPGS

SMILES: CC(C)(O)Cn1cc2cc(-c3sc(C(=O)N4CCC[C@@H](N)C4)cc3-c3ccc(C#N)c(F)c3)cnc2n1 [Compound 61]
- IC50 [1]: > 40 µM

SMILES: N#Cc1ccc(-c2cc(C(=O)N3CCC[C@@H](N)C3)sc2-c2ccc3nncn3c2)cc1F [Compound 67]
- IC50 [1]: > 40 µM

SMILES: N#Cc1ccc(-c2cc(C(=O)N3CCC[C@@H](N)C3)sc2-c2ccc3nn(C4COC4)cc3c2)cc1F [Compound 70]
- IC50 [2]: 0.00988 µM
- IC50 [1]: 18.7 µM

SMILES: N#Cc1ccc(-c2cc(C(=O)N3CCC[C@@H](N)C3)sc2-c2ccn3cnnc3c2)cc1F [Compound 76]
- IC50 [1]: > 40 µM

SMILES: N#Cc1ccc(-c2cc(C(=O)N3CCC[C@@H](N)C3)sc2-c2ccc3oncc3c2)cc1F [Compound 77]
- IC50 [1]: > 40 µM

SMILES: CC1(O)CN(C(=O)c2ccc(-c3sc(C(=O)N4CCC[C@@H](N)C4)cc3-c3ccc(C#N)c(F)c3)cc2)C1 [Compound 81]
- IC50 [1]: > 40 µM

SMILES: N#Cc1ccc(-c2cc(C(=O)N3CCC[C@@H](N)C3)sc2-c2ccc(OCC(=O)O)c(F)c2)cc1F [Hydrochloride of compound 30]
- IC50 [3]: 0.122 µM
- IC50 [1]: > 40 µM

SMILES: Cn1cc(-c2sc(C(=O)N3CCC[C@@H](N)C3)cc2-c2ccc(C#N)c(F)c2)ccc1=O [Hydrochloride of compound 32]
- IC50 [1]: > 40 µM

SMILES: N#Cc1ccc(-c2cc(C(=O)N3CCC[C@@H](N)C3)sc2-c2cnc(N)nc2)cc1F [Hydrochloride of compound 45]
- IC50 [1]: 32.6 µM

SMILES: COC1CC(n2cc3cc(-c4sc(C(=O)N5CCC[C@@H](N)C5)cc4-c4ccc(C#N)c(F)c4)ccc3n2)C1 (some centres unmarked) [Hydrochloride of compound 80]
- IC50 [3]: 0.0202 µM
- IC50 [2]: 0.0161 µM
- clearance ([4]; IV 1 mg/kg, read-out: Clearance rate CL): 2.02 L/h/kg
- half-life ([4]; IV 1 mg/kg, read-out: Half life T1/2 (IV, h) (converted)): 1.93 h
- Vd ([4]; IV 1 mg/kg, read-out: Volume of distribution at steady state Vdss): 4.89 L/kg
- bioavailability ([4]; PO 2 mg/kg vs IV 1 mg/kg, read-out: Bioavailability F (%)): 31.9%
- AUC(0-t) ([4]; PO 2 mg/kg, read-out: Area under drug-time curve AUC0-last PO): 576 nM·h
- Cmax ([4]; single dose, oral 2 mg/kg, read-out: Peak concentration Cmax): 0.109 µM

SMILES: N#Cc1ccc(-c2cc(C(=O)N3CCC[C@@H](N)C3)sc2-c2cc3cn(CC4(O)CCC4)nc3cc2F)cc1F [Hydrochloride of compound 95]
- IC50 [3]: 0.0101 µM
- IC50 [2]: 0.00251 µM

SMILES: N#Cc1ccc(-c2cc(C(=O)N3CCC[C@@H](N)C3)sc2-c2ccc(N3CC[C@H](O)C3)c(F)c2)cc1F [Hydrochloride of compound 96]
- IC50 [3]: 0.0206 µM
- IC50 [2]: 0.00479 µM

SMILES: N#Cc1ccc(-c2cc(C(=O)N3CCC[C@@H](N)C3)sc2-c2cc3nnn([C@H]4COCC[C@@H]4O)c3c(F)c2F)cc1F [Hydrochloride of compound 97]
- IC50 [3]: 0.0253 µM
- IC50 [2]: 0.0096 µM

SMILES: N#Cc1ccc(-c2cc(C(=O)N3CCCNCC3)sc2-c2cc3nnn(CC4(O)CCC4)c3c(F)c2F)cc1F [Hydrochloride of compound 100]
- IC50 [3]: 0.0141 µM
- IC50 [2]: 0.00037 µM

SMILES: N#Cc1ccc(-c2cc(C(=O)N3CCC[C@@H](N)C3)sc2-c2ccc(N3CC[C@@H](O)C3)c(F)c2)cc1F [Hydrochloride of compound 101]
- IC50 [3]: 0.0287 µM
- IC50 [2]: 0.00335 µM

SMILES: CC(C)(CO)n1cc2cc(-c3sc(C(=O)N4CCCNCC4)cc3-c3ccc(C#N)c(F)c3)ccc2n1 [Hydrochloride of compound 102]
- IC50 [3]: 0.0569 µM
- IC50 [2]: 0.0314 µM

SMILES: CC(C)(CO)n1nnc2cc(-c3sc(C(=O)N4CCCNCC4)cc3-c3ccc(C#N)c(F)c3)c(F)c(F)c21 [Hydrochloride of compound 103]
- IC50 [3]: 0.0216 µM
- IC50 [2]: 0.0137 µM

SMILES: CN[C@@H]1CCCN(C(=O)c2cc(-c3ccc(C#N)c(F)c3)c(-c3ccc4nn(C(C)(C)CO)cc4c3)s2)C1 [Hydrochloride of compound 104]
- IC50 [3]: 0.0166 µM
- IC50 [2]: 0.00475 µM

SMILES: N#Cc1ccc(-c2cc(C(=O)N3CCC[C@@H](N)C3)sc2-c2ccc(N3CC[C@H](O)C3)cc2)cc1F [Hydrochloride of compound 107]
- IC50 [3]: 0.0151 µM
- IC50 [2]: 0.00331 µM

SMILES: CN[C@@H]1CCCN(C(=O)c2cc(-c3ccc(C#N)c(F)c3)c(-c3ccc(N4CC[C@@H](O)C4)cc3)s2)C1 [Hydrochloride of compound 109]
- IC50 [3]: 0.0107 µM
- IC50 [2]: 0.00203 µM

SMILES: N#Cc1ccc(-c2cc(C(=O)N3CCC[C@@H](N)C3)sc2-c2ccc(N3CC[C@@H](O)C3)cc2)cc1F [Hydrochloride of compound 110]
- IC50 [3]: 0.00984 µM
- IC50 [2]: 0.00347 µM

SMILES: N#Cc1ccc(-c2cc(C(=O)N3CCC[C@@H](N)C3)sc2-c2ccc(N3CC[C@@H](O)C3)cc2F)cc1F [Hydrochloride of compound 112]
- IC50 [3]: 0.00584 µM
- IC50 [2]: 0.00499 µM

SMILES: N#Cc1ccc(-c2cc(C(=O)N3CCCNCC3)sc2-c2ccc(N3CC[C@@H](O)C3)cc2)cc1F [Hydrochloride of compound 117]
- IC50 [3]: 0.019 µM
- IC50 [2]: 0.0402 µM

SMILES: CC1(O)CN(c2ccc(-c3sc(C(=O)N4CCC[C@@H](N)C4)cc3-c3ccc(C#N)c(F)c3)cc2)C1 [Hydrochloride of compound 118]
- IC50 [3]: 0.0138 µM
- IC50 [2]: 0.0316 µM

SMILES: CC(C)(O)CNc1ccc(-c2sc(C(=O)N3CCC[C@@H](N)C3)cc2-c2ccc(C#N)c(F)c2)cc1F [Hydrochloride of compound 119]
- IC50 [3]: 0.0177 µM
- IC50 [2]: 0.00917 µM

SMILES: N#Cc1ccc(-c2cc(C(=O)N3CCC[C@@H](N)C3)sc2-c2ccc(NCC3(O)CCC3)c(F)c2)cc1F [Hydrochloride of compound 120]
- IC50 [3]: 0.0094 µM
- IC50 [2]: 0.0175 µM

SMILES: Cn1nc2ccc(-c3sc(C(=O)N4CCC[C@@H](N)C4)cc3-c3ccc(C#N)c(F)c3)cc2c1F [Hydrochloride of compound 123]
- IC50 [3]: 0.0267 µM
- IC50 [2]: 0.00625 µM
